Values joined by “and” are separate entries in the source; they are usually repeats but may differ in a detail not shown here. Equal entries are not always repeated. Where two headings read alike, the source gives them in different places.
How the values were obtained:
[1] = tested on: HIV transcripts (TAR, LLTR, Pol, PolyA, TatRev); assay: Latency reversal assay: cell-associated HIV transcripts (RT-ddPCR) 24 hours after anti-CD3/CD28 activation of PBMCs from ART-suppressed PWH; format: cell-based; design: Elongated (LLTR) HIV transcripts, median relative to activated DMSO, initial screening / Midtranscribed (Pol) HIV transcripts, median relative to activated DMSO, initial screening / Multiply spliced (TatRev) HIV transcripts, median relative to activated DMSO, initial screening: concentration or dose not given beside the values; conditions: for mrna remaining at 0.1 µM: 100nM; for Completed (PolyA) HIV transcripts, median relative to activated DMSO, initial screening / Effect on HIV transcripts in the initial drug screen (in words) / Multiply spliced (TatRev) HIV transcripts, median relative to activated DMSO, initial screening: 2 participants, initial screening; for Completed (PolyA) HIV transcripts, median relative to activated DMSO, initial screening / Multiply spliced HIV transcripts (TatRev) (Fig 1B) / Multiply spliced (TatRev) HIV transcripts, median relative to activated DMSO, initial screening: 24 hours; for Completed (PolyA) HIV transcripts, median relative to activated DMSO, initial screening / Multiply spliced (TatRev) HIV transcripts, median relative to activated DMSO, initial screening: Supplemental Figure 2; for Effect on HIV transcripts in the initial drug screen (in words): 24 hours after activation; for Multiply spliced (TatRev) HIV transcripts, median relative to activated DMSO, initial screening: Figure 1B
Procedure: We selected 26 small molecules targeting pathways implicated in HIV transcription or the blocks to HIV transcription underlying latency (Supplemental Table 1). […] Initial screening of all drugs was performed in freshly isolated PBMCs from 2 ART-suppressed individuals (Figure 1 and Supplemental Figure 2). PBMCs were cultured in the presence of individual drugs in DMSO or DMSO alone as a control, subsequently activated (anti-CD3/CD28), and harvested after 24 hours. […] The progression through different blocks to HIV transcription was quantified by measuring the levels of initiated (TAR), 5′ elongated (LLTR), midtranscribed/unspliced (Pol), completed (PolyA), and multiply spliced (TatRev) HIV transcripts. The levels of those HIV transcripts were normalized to 1 μg of total cellular RNA (to normalize for the effect of the drug on global cellular transcription) and expressed as a percentage of the activated DMSO control.
(§1) Figure 1 Screening of candidate LPAs by measuring the change in multiply spliced HIV transcripts after activation. Each drug was tested in PBMCs from 2 ART-suppressed study participants (denoted in the legend by varying symbol shapes). PBMCs were aliquoted into wells at 6 × 10^6 cells/well. After activation, the cells were cultured with antiretrovirals in the presence of individual drugs in DMSO or DMSO alone as control. All conditions were tested in the presence of CD3/28 T cell–activating beads, except for the unactivated DMSO condition. (A) After 24 hours, the viability was measured by trypan blue staining and then normalized to the levels of the activated DMSO (% of activated DMSO). Bars indicate medians. (B) Total cellular RNA was extracted, and the levels of multiply spliced HIV transcripts (TatRev) were measured by RT-ddPCR, normalized to 1 μg of total cellular RNA, and expressed as a percentage of the activated DMSO control (% of activated DMSO). RT-dd, reverse transcription digital droplet; vRNA, viral RNA; HAT, histone acetyltransferase.
The ability of our candidate LPAs to inhibit HIV transcriptional progression after activation was examined in PBMCs from a minimum of 7 PWH per drug tested (Figure 3). PBMCs were cultured in the presence of individual drugs in DMSO or in DMSO alone as a control, subsequently activated (anti-CD3/CD28), and harvested after 24 hours.
Each drug was tested in PBMCs from 7 ART-suppressed study participants. The PBMCs were aliquoted into wells at 6 × 10^6 cells/well. After activation, the cells were cultured with antiretrovirals in the presence of individual drugs in DMSO or DMSO alone as control. All conditions were tested in the presence of CD3/28 T cell–activating beads, except for the unactivated DMSO condition. After 24 hours, total RNA was extracted, and the progression through different stages of HIV transcription was quantified by measuring the levels of initiated (TAR), 5′ elongated (LLTR), midtranscribed/unspliced (Pol), completed (PolyA), and multiply spliced (TatRev) HIV transcripts. (A) The levels of all HIV transcripts were normalized to 1 μg of total cellular RNA and expressed as a percentage of the activated DMSO control (% of activated DMSO). Medians are shown as well as the individual values per study participant in different colors. (B–D) The effect of each drug on HIV transcriptional progression after activation was analyzed by the ratio of one HIV transcript to another. Ratios are independent of HIV infection frequency or normalization to cell numbers. Shown are the proportion of (B) all HIV transcripts that were elongated (LLTR/TAR), (C) elongated HIV transcripts that were completed spliced (PolyA/LLTR), and (D) completed transcripts that were multiply spliced (TatRev/PolyA).

PBMCs = assay: Cell viability by trypan blue staining after 24 hours; format: cell-based, human
Procedure: as §1
For quantification of cell-associated HIV transcripts, PBMCs were harvested either after 24 hours or after 6 days. The cell viabilities were measured by trypan blue staining; then the cells were pelleted by centrifuging at 300g for 6 minutes and stored at –80°C. For quantification of virion-associated HIV RNA, cell culture supernatant was collected from 6 × 10^6 PBMCs that were treated and activated for 6 days as described above. Residual cells and cellular debris were subsequently removed from the supernatant by differential centrifugation (300g for 6 minutes, then 20,000g for 10 minutes), and the supernatant was stored at –80°C.

[2] = 10μM, 24 h after αCD3/28 activation, each column one participant

Row | Structure (SMILES) | Viability (Fig 1A) (PBMCs; study participant 150a) | Viability (Fig 1A) (PBMCs; study participant 152) | Effect on HIV transcripts in the initial drug screen (in words) [1] | also measured
1 | CN1CCN(c2nc(C3=C(c4c[nH]c5ccccc45)C(=O)NC3=O)c3ccccc3n2)CC1 [sotrastaurin] | 103.88 % of activated DMSO | 98.33 % of activated DMSO |  | mrna remaining at 0.1 µM ([1]; Human immunodeficiency virus 1, PBMC, 24 h, 24 h after αCD3/28 activation, each column one participant, read-out: LLTR HIV transcripts (DMSO+αCD3/28 = 100)): 99.4%; mrna remaining at 0.1 µM ([1]; Human immunodeficiency virus 1, PBMC, 24 h, 24 h after αCD3/28 activation, each column one participant, read-out: Pol HIV transcripts (DMSO+αCD3/28 = 100)): 51.5%; mrna remaining at 0.1 µM ([1]; Human immunodeficiency virus 1, PBMC, 24 h, 24 h after αCD3/28 activation, each column one participant, read-out: PolyA HIV transcripts (DMSO+αCD3/28 = 100)): 39.3%; Completed (PolyA) HIV transcripts, median relative to activated DMSO, initial screening [1]: 41%
2 | CC(=O)Oc1ccccc1C(=O)O [aspirin] | 99.56 % of activated DMSO | 95.5 % of activated DMSO | did not observe much reduction | 
3 | CCCCCCCCCCCCCCC=C(C(=O)OCC)C(=O)OCC [SPV-106] | 103.1 % of activated DMSO | 97.61 % of activated DMSO | did not observe any reduction | LLTR HIV transcripts (DMSO+αCD3/28 = 100) [1, 2]: 123.81 and 93.28; Pol HIV transcripts (DMSO+αCD3/28 = 100) [1, 2]: 71.05 and 12.29; PolyA HIV transcripts (DMSO+αCD3/28 = 100) [1, 2]: 64.82 and 38.96; TatRev HIV transcripts (DMSO+αCD3/28 = 100) [1, 2]: 60.34 and 263.16; Multiply spliced HIV transcripts (TatRev) (Fig 1B) ([1]; study participant 150a): 60.34 % of activated DMSO; Multiply spliced HIV transcripts (TatRev) (Fig 1B) ([1]; study participant 152): 263.16 % of activated DMSO
4 | COc1cc(F)ccc1-c1ncnc(Nc2cccc(C[S@](C)(=N)=O)c2)n1 [atuveciclib] | 108.3 % of activated DMSO | 95.7 % of activated DMSO |  | Multiply spliced (TatRev) HIV transcripts, median relative to activated DMSO, initial screening [1]: 46%
5 | Nc1ncnc2c1ncn2[C@@H]1O[C@H](CO)C[C@H]1O [cordycepin] | 101.9 % of activated DMSO | 92.02 % of activated DMSO | did not observe any reduction | 
6 | Oc1ccc(/C=C/c2cc(O)cc(O)c2)cc1 [resveratrol] | 102.48 % of activated DMSO | 91.76 % of activated DMSO |  | 
7 | C[C@H]1O[C@@H](O[C@H]2[C@@H](O)C[C@H](O[C@H]3[C@@H](O)C[C@H](O[C@H]4CC[C@@]5(C)[C@H](CC[C@@H]6[C@@H]5C[C@@H](O)[C@]5(C)[C@@H](C7=CC(=O)OC7)CC[C@]65O)C4)O[C@@H]3C)O[C@@H]2C)C[C@H](O)[C@@H]1O [digoxin] | 98.44 % of activated DMSO | 105.27 % of activated DMSO | did not observe decreases | mrna remaining at 0.0025 µM ([1]; Human immunodeficiency virus 1, PBMC, 24 h, 2.5nM, 24 h after αCD3/28 activation, each column one participant, read-out: PolyA HIV transcripts (DMSO+αCD3/28 = 100)): 87%
8 | Nc1nc2nn[nH]c2c(=O)[nH]1 [8-azaguanine] | 106.88 % of activated DMSO | 98.65 % of activated DMSO | did not observe decreases | Multiply spliced (TatRev) HIV transcripts, median relative to activated DMSO, initial screening [1]: increase in multiply spliced transcripts
9 | Nc1ccc(O)c(C(=O)O)c1 [mesalamine] | 102.78 % of activated DMSO | 98.77 % of activated DMSO | did not observe any reduction | 
10 | CN[C@@H]1C[C@H]2O[C@@](C)([C@@H]1OC)n1c3ccccc3c3c4c(c5c6ccccc6n2c5c31)C(=O)NC4 [staurosporine] | 109.29 % of activated DMSO | 100.37 % of activated DMSO |  | Completed (PolyA) HIV transcripts, median relative to activated DMSO, initial screening [1]: 41%
11 | Cn1cc(C2=C(c3cn(C4CCN(Cc5ccccn5)CC4)c4ccccc34)C(=O)NC2=O)c2ccccc21 [enzastaurin] | 100.98 % of activated DMSO | 98.98 % of activated DMSO |  | 
12 | CC(=O)S[C@@H]1CC2=CC(=O)CC[C@]2(C)[C@H]2CC[C@@]3(C)[C@@H](CC[C@@]34CCC(=O)O4)[C@H]12 [spironolactone] | 102.53 % of activated DMSO | 102.65 % of activated DMSO | little reduction | 
